Here are results for three compounds from ChEMBL document CHEMBL3046467, “Structure-activity relationship of carboxin-related carboxamides as fungicide” (2011).

SMILES strings stand for the structures.

What all share (format): functional
Assay [1] concerns Puccinia recondita. As to the kind of experiment: Fungicidal activity against Puccinia recondita spores inoculated on leaves of compound pre-treated 1.5 leaf-stage wheat plants assessed as wheat brown rust disease control level at 25 ppm measured after 8 days post fungal inoculation.
The test system of a further assay is Pyricularia grisea. The assay can be described thus: Fungicidal activity against Magnaporthe grisea spores inoculated on leaves of compound pre-treated 2 or 3 leaf-stage rice plants assessed as rice blast disease control level at 250 ppm measured after 7 days post fungal inoculation.
The subject of assay [2] is Podosphaera xanthii. As to the kind of experiment: Fungicidal activity against Podosphaera xanthii (powdery mildew) spores inoculated on leaves of compound pre-treated 1.5 leaf-stage cucumber plants assessed as powdery mildew disease control level at 25 ppm measured after 7 days post fungal inoculation.
The subject of a further assay is Botrytis cinerea. As to the kind of experiment: Fungicidal activity against Botryotinia fuckeliana spores inoculated on leaves of compound pre-treated seed-leaf stage kidney beans assessed as gray mold disease control level at 500 ppm measured after 4 days post fungal inoculation.
The subject of assay [3] is Podosphaera xanthii. The assay can be described thus: Fungicidal activity against Podosphaera xanthii (powdery mildew) spores inoculated on leaves of compound pre-treated 1.5 leaf-stage cucumber plants assessed as powdery mildew disease control level at 250 ppm measured after 7 days post fungal inoculation.
Assay [4] concerns Puccinia recondita. The assay can be described thus: Fungicidal activity against Puccinia recondita spores inoculated on leaves of compound pre-treated 1.5 leaf-stage wheat plants assessed as wheat brown rust disease control level at 250 ppm measured after 8 days post fungal inoculation.

Turning to `CC(C)CCC(C)c1sccc1NC(=O)c1cn(C)nc1C(F)(F)F` (configuration not stated), the Activity entry in the assay with Puccinia recondita [1] is recorded as “>=95%”; in the assay with Pyricularia grisea, “>=95%”; in the assay with Podosphaera xanthii [2] it was “>=50%”; in the assay with Botrytis cinerea, “>=95%”.
As for `Cc1nc(Cl)c(C(=O)Nc2ccccc2-c2ccccc2)s1`, the Activity in the assay on Pyricularia grisea, with Botrytis cinerea, with Podosphaera xanthii [3] and in the assay with Puccinia recondita [4] was less than 95% each time.
`Cn1cc(C(=O)Nc2ccccc2-c2ccccc2)c(Cl)n1`: the Activity in the assay on Pyricularia grisea, in the assay on Botrytis cinerea, in the assay with Podosphaera xanthii [3] and in the assay on Puccinia recondita [4] was less than 95% throughout.
